Data reported in ChEMBL document CHEMBL4052692, “Synthesis and biological activity of peptide proline-boronic acids as proteasome inhibitors” (Bioorg Med Chem, 2017).

Tested on: A549
Assay: Cytotoxicity against human A549 cells after 72 hrs by MTT assay
Assay type: functional, cell-based
Conditions: A549, 72 h
Compound `CC(C)C[C@H](NC(=O)OCc1ccccc1)C(=O)N[C@@H](Cc1ccc2ccccc2c1)C(=O)N1CCC[C@H]1B(O)O` has an IC50 of 5.99 µM.

Tested on: MGC-803
Assay: Cytotoxicity against human MGC803 cells after 72 hrs by MTT assay
Assay type: functional, cell-based
Conditions: MGC-803, 72 h
In the case of `CC(C)C[C@H](NC(=O)[C@H](Cc1ccccc1)NC(=O)N1CCc2ccccc2C1)C(=O)N1CCC[C@H]1B(O)O`, the IC50 is reported as > 10 µM.
`CC(C)C[C@H](NC(=O)c1cnccn1)C(=O)N[C@@H](CC(C)C)C(=O)N1CCC[C@H]1B(O)O` gave an IC50 of 4.43 µM.
`O=C(N[C@@H](Cc1ccccc1)C(=O)N[C@@H](Cc1ccc2ccccc2c1)C(=O)N1CCC[C@H]1B(O)O)c1cnccn1` showed an IC50 of 0.11 µM.
In the case of `CC(C)C[C@H](NC(=O)c1cnccn1)C(=O)N[C@@H](Cc1ccccc1)C(=O)N1CCC[C@H]1B(O)O`, the IC50 is reported as 0.0272 µM.
For `O=C(N[C@@H](Cc1ccccc1)C(=O)N1CCC[C@H]1B(O)O)c1cnccn1`, the IC50 was > 10 µM.
With `O=C(N[C@@H](Cc1ccc2ccccc2c1)C(=O)N1CCC[C@H]1B(O)O)OCc1ccccc1` the IC50 was > 10 µM.
Compound `CC(C)C[C@H](NC(=O)N1CCc2ccccc2C1)C(=O)N[C@@H](Cc1ccc2ccccc2c1)C(=O)N1CCC[C@H]1B(O)O` has an IC50 of 1.43 µM.
With `CC(C)C[C@H](NC(=O)OCc1ccccc1)C(=O)N[C@@H](CC(C)C)C(=O)N1CCC[C@H]1B(O)O` the IC50 was 0.0109 µM.
For `O=C(N[C@@H](Cc1ccccc1)C(=O)N1CCC[C@H]1B(O)O)N1CCOCC1`, the IC50 was > 10 µM.
Compound `O=C(N[C@@H](Cc1ccccc1)C(=O)N[C@@H](Cc1ccccc1)C(=O)N1CCC[C@H]1B(O)O)c1cnccn1` has an IC50 of 0.478 µM.
`O=C(N[C@@H](Cc1ccc2ccccc2c1)C(=O)N1CCC[C@H]1B(O)O)[C@H](Cc1ccccc1)NC(=O)N1CCc2ccccc2C1` gave an IC50 of 2.42 µM.
`O=C(N[C@@H](Cc1ccc(O)cc1)C(=O)N1CCC[C@H]1B(O)O)[C@H](Cc1ccccc1)NC(=O)N1CCc2ccccc2C1` gave an IC50 of 7.64 µM.
`O=C(N[C@@H](Cc1ccccc1)C(=O)N[C@@H](Cc1ccc2ccccc2c1)C(=O)N1CCC[C@H]1B(O)O)OCc1ccccc1` gave an IC50 of 0.149 µM.
Work on `CC(C)C[C@H](NC(=O)c1cnccn1)C(=O)N[C@@H](Cc1ccc2ccccc2c1)C(=O)N1CCC[C@H]1B(O)O` yielded an IC50 of 0.0296 µM.
With `O=C(N[C@@H](Cc1ccccc1)C(=O)N1CCC[C@H]1B(O)O)N1CCc2ccccc2C1` the IC50 was > 10 µM.
`CC(C)C[C@H](NC(=O)N(C)Cc1ccccc1)C(=O)N[C@@H](Cc1ccc2ccccc2c1)C(=O)N1CCC[C@H]1B(O)O` showed an IC50 of 1.65 µM.
For `CC(C)C[C@H](NC(=O)OCc1ccccc1)C(=O)N[C@@H](Cc1ccc2ccccc2c1)C(=O)N1CCC[C@H]1B(O)O`, the IC50 was 0.00976 to 0.01 µM.
With `O=C(N[C@@H](Cc1ccc2ccccc2c1)C(=O)N1CCC[C@H]1B(O)O)N1CCc2ccccc2C1` the IC50 was 5.36 µM.
With `CN(Cc1ccccc1)C(=O)N[C@@H](Cc1ccc2ccccc2c1)C(=O)N1CCC[C@H]1B(O)O` the IC50 was 7.48 µM.
Compound `O=C(N[C@@H](Cc1ccccc1)C(=O)N1CCC[C@H]1B(O)O)[C@H](Cc1ccccc1)NC(=O)N1CCc2ccccc2C1` has an IC50 of 4.17 µM.
Compound `CC(C)C[C@H](NC(=O)[C@H](Cc1ccccc1)NC(=O)c1cnccn1)B(O)O` [BORTEZOMIB] has an IC50 of 0.008 to 0.0133 µM.

Tested on: not listed separately
Assay: Cytotoxicity against human 95-D cells after 72 hrs by MTT assay
Assay type: functional, cell-based
Conditions: not given
`CC(C)C[C@H](NC(=O)OCc1ccccc1)C(=O)N[C@@H](Cc1ccc2ccccc2c1)C(=O)N1CCC[C@H]1B(O)O` showed an IC50 of 0.012 µM.
With `CC(C)C[C@H](NC(=O)[C@H](Cc1ccccc1)NC(=O)c1cnccn1)B(O)O` [BORTEZOMIB] the IC50 was 0.038 µM.

Tested on: HCT-116
Assay: Cytotoxicity against human HCT116 cells after 72 hrs by MTT assay
Assay type: functional, cell-based
Conditions: HCT-116, 72 h
Compound `CC(C)C[C@H](NC(=O)OCc1ccccc1)C(=O)N[C@@H](Cc1ccc2ccccc2c1)C(=O)N1CCC[C@H]1B(O)O` has an IC50 of 0.069 µM.
With `CC(C)C[C@H](NC(=O)[C@H](Cc1ccccc1)NC(=O)c1cnccn1)B(O)O` [BORTEZOMIB] the IC50 was 0.001 µM.

Tested on: MDA-MB-231
Assay: Cytotoxicity against human MDA-MB-231 cells after 72 hrs by MTT assay
Assay type: functional, cell-based
Conditions: MDA-MB-231, 72 h
For `CC(C)C[C@H](NC(=O)OCc1ccccc1)C(=O)N[C@@H](Cc1ccc2ccccc2c1)C(=O)N1CCC[C@H]1B(O)O`, the IC50 was 0.007 µM.

Tested on: HL-60
Assay: Cytotoxicity against human HL60 cells after 72 hrs by MTT assay
Assay type: functional, cell-based
Conditions: HL-60, 72 h
In the case of `CC(C)C[C@H](NC(=O)OCc1ccccc1)C(=O)N[C@@H](Cc1ccc2ccccc2c1)C(=O)N1CCC[C@H]1B(O)O`, the IC50 is reported as < 0.001 µM.
`CC(C)C[C@H](NC(=O)[C@H](Cc1ccccc1)NC(=O)c1cnccn1)B(O)O` [BORTEZOMIB] showed an IC50 of 0.008 µM.

Biological target: T1, Proteasome Macropain subunit MB1 (Homo sapiens, UniProt P28074)
T1 sequence (P28074 whole entry): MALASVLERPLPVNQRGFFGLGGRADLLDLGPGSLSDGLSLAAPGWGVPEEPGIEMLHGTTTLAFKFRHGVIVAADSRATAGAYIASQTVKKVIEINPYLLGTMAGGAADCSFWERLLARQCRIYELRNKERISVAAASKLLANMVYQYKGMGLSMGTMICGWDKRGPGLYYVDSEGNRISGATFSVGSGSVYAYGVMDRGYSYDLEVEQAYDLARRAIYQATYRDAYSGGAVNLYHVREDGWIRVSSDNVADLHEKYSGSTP
Assay: Inhibition of chymotrypsin-like activity of 20S proteasome in human HL60 cells using Suc-LLVYaminoluciferin as substrate pretreated for 2 hrs followed by substrate addition by […]
Assay type: cell-based
Conditions: not given
Work on `CC(C)C[C@H](NC(=O)OCc1ccccc1)C(=O)N[C@@H](Cc1ccc2ccccc2c1)C(=O)N1CCC[C@H]1B(O)O` yielded an IC50 of 0.018 µM.

Tested on: not listed separately
Assay: Selectivity ratio of IC50 for trypsin-like activity of 20S proteasome in human HL60 cells to IC50 for chymotrypsin-like activity of 20S proteasome in human HL60 cells
Conditions: not given
With `CC(C)C[C@H](NC(=O)OCc1ccccc1)C(=O)N[C@@H](Cc1ccc2ccccc2c1)C(=O)N1CCC[C@H]1B(O)O` the “Ratio IC50” value was 92.2.

Tested on: not listed separately
Assay: Selectivity ratio of IC50 for PGPH-like activity of 20S proteasome in human HL60 cells to IC50 for chymotrypsin-like activity of 20S proteasome in human HL60 cells
Conditions: not given
In the case of `CC(C)C[C@H](NC(=O)OCc1ccccc1)C(=O)N[C@@H](Cc1ccc2ccccc2c1)C(=O)N1CCC[C@H]1B(O)O`, the “Ratio IC50” value is reported as 69.4.
